Measured values: patent US20060183221A1, “Method for neural differentiation of embryonic stem cells using protease passaging techniques” (priority 2003, published 2006)

Legend:
[1] = test system: differentiating mouse ES cells (ES-J1); assay: Apoptosis (TUNEL staining) in differentiating mouse ES cells incubated with ceramide analogs; assay type: cell-based; conditions: 15 hours with 75 μM S16 or S18, or 35 μM C2-ceramide
Description: In vitro neural differentiation of mouse ES cells (ES-J1, ES-D3) followed a serum deprivation protocol as described previously (Hancock, et al., 2000, Biochem. Biophys. Res. Commun. 271: 418-421). The differentiation stages are outlined in FIG. 2. Briefly, ES cells were grown on gamma-irradiated feeder fibroblasts for four days in Knockout DMEM/15% Knockout serum replacement, supplemented with ESGRO (LIF; Chemicon; Cat No. ESG1106) at a concentration of […] medium. ES cells were then grown for another four days on gelatin-coated bacterial culture dishes without a fibroblast feeder layer, and were then grown for three days in Knockout DMEM/15% heat-inactivated ES qualified Fetal Bovine Serum, supplemented with 10^3 units LIF per ml of medium. Upon trypsinization, ES cells were transferred to bacterial culture dishes without gelatin, and embryoid body (EB) formation was induced for four days in Knockout DMEM/10% heat-inactivated ES qualified FBS without LIF (EB4 stage). On the fifth day, floating and loosely attached EBs were rinsed off and transferred to tissue culture dishes. The EBs were allowed to attach to the tissue culture dish surface by incubation for another 24 hours in Knockout DMEM with 10% heat-inactivated ES qualified fetal bovine serum. Neural differentiation due to serum deprivation was induced by cultivation of the EBs for three days in DMEM/F12 (50/50), supplemented with 1×N2 (Invitrogen/Life Technologies; Cat No. 17502, dilution of 1: 100) but without serum (EB8 stage). Serum-deprived EBs were then trypsinized, plated on poly-L-ornithine/laminin-coated tissue culture dishes and grown for four days in DMEM/F12 (50/50), supplemented with N2 and 10 ng/ml FGF-2, but without serum. his incubation period is referred to as neuroprogenitor (NP) stage due to commitment of neuroepithelial precursor cells to neuroprogenitor cells. These cells have committed during the EB stages and were expanded during the NP stage. NPs grown for 48 hours upon replating of trypsinized EBs were referred to as the NP2 stage. On the fifth day of NP formation, the medium was changed to Neurobasal (Invitrogen/Life Technologies; Cat No. 21103-049), with 5% heat-inactivated FBS, and the cells were incubated for another seven days. During this time, NPs fully differentiate to glial cells and neurons. Cells cultured for 24 hours or 96 hours upon changing the medium were referred to as the D1 or D4 stage, respectively.
ES cells were cultured and differentiated to the EB4, EB8, NP2, or D4 stage following the protocol as described above. The ceramide analog S18 was dissolved in ethanol at a concentration of 100 mM and then added to the cells at a final concentration of 75 μM in medium. The cells at the EB8 stage were incubated for 48 hours in the presence of the ceramide analog and were then transplanted into mouse brains.
Differentiating ES cells were grown on cover slips and fixed with 4% paraformaldehyde in phosphate-buffered saline (PBS). Fixed cells were permeabilized with 0.5% Triton X-100 in PBS for 5 minutes at room temperature and unspecific binding sites were saturated by incubation with 3% ovalbumin in PBS for 1 hour at 37° C. The cover slips were then incubated with 5 μg/ml primary antibody (anti-ceramide clone 15B4 mouse IgM, Alexis; anti-PAR-4 rabbit IgG, Santa Cruz; anti-PCNA rabbit IgG, Santa Cruz; anti-nestin clone 401 rat IgG, BD Pharmingen) in 0.1% ovalbumin/PBS, followed by incubation with the appropriate fluorescence-labeled secondary antibody (5 μg/ml Alexa 546 conjugated anti-mouse IgG, Molecular Probes; Alexa 488 conjugated anti-rabbit IgG, Molecular Probes, Cy3 conjugated anti-mouse IgM, Jackson) for 2 hours at 37° C. The nuclei were stained by treatment with 2 μg/ml Hoechst 33258 in PBS for 30 minutes at room temperature. Apoptotic nuclei were stained using the fluorescein FragEL TUNEL assay (Oncogene) according to the manufacturer's instructions. […]

[2] = test system: Mouse neuroblastoma (F-11) cells; assay: Induction of apoptosis in mouse neuroblastoma cells (Hoechst 33258 staining of condensed nuclei); assay type: cell-based; conditions: 24 hours
Description: Mouse neuroblastoma (F-11) cells were incubated for 24 hours in 0.1, 0.2, 0.5, or 1.0 μM of laurylgallate (Aldrich). Apoptosis was determined by punctate staining of condensed nuclei with Hoechst 33258 (Sigma, […] medium for 30 minutes at room temperature).

SSEA4 selected HESCs [3] = conditions: 4 ng/ml FGF2 and 100 μM proline
Description: Essentially serum free embryoid bodies were generated from bulk passaged monolayer HESC colonies as described in Example 6, in the presence of 4 ng/ml FGF2 and 100 μM Proline, or in 4 ng/ml FGF2 with MEDII conditioned medium as a positive control.
Serum free embryoid bodies were cultured in suspension for 17 days, and were cut into pieces and seeded onto polyornithine/laminin coated slides at day 10 or 17. The explants were cultured on slides for 5 days prior to fixation at day 15 or 22, for immunostaining with anti-βIII-Tubulin and anti-Tyrosine Hydroxylase antibodies.

SSEA4 selected HESCs [4] = assay: Differentiation of SSEA4 selected HESCs as serum free embryoid bodies in differing media formulations (cytospin counts, immunostaining); assay type: cell-based, human; conditions: L-proline conditions
Description: Serum free embryoid bodies were cultured in suspension for 3 weeks. Morphological differences were apparent between the cultures. […] Serum free embryoid bodies were cultured in suspension, and were cut into pieces, seeded onto polyornithine/laminin coated slides at day 21 and fixed at day 25. […] This was indicative that this differentiation protocol utilizes an intrinsic neural differentiation capacity of HESC, rather than exogenous neural inducing factors.
Cytospins of disaggregated serum free embryoid bodies were performed at day 21 to enable the counting of the proportion of βIII-Tubulin or TH positive cells generated in the different media formulations. […]
To count proportions of neurons in serum free embryoid bodies, cytospins were immunostained with anti-βIII-Tubulin (Sigma, #T8660) or mouse anti-TH monoclonal antibodies (PeIFreez Biologicals, #P80101-0), detected with alexa-488 conjugated anti-mouse secondary antibody and nuclei were stained with DAPI. Two color fluorescent images were taken under 10× magnification and merged, and double positive signals were scored as neuronal cell bodies, or TH+ neuronal cell bodies against the total nuclei count. A minimum of three randomly sampled fields and 250 or 100 nuclei for βIII-Tubulin or TH, respectively, were counted for each condition. […]

SSEA4 selected HESCs [5] = test system: SSEA4 selected HESCs
Source text: Essentially serum free embryoid bodies were generated from bulk passaged monolayer HESC colonies as described in Example 6, in the presence of the media set out below.

SSEA4 selected HESCs [6] = assay: Neural differentiation of SSEA4 selected bulk passaged HESCs as serum free embryoid bodies with or without MEDII and S18, seeded and immunostained; assay type: cell-based, human
Description: Cultures were treated with or without 10 μM S18 from day 13 to day 17. After S18 treatment, serum free embryoid bodies were washed several times and cultured further until day 18. Serum free embryoid bodies were cut into pieces to seed down to polyornithine/laminin coated slides.
In the presence of MEDII, a consistently high proportion of the culture contained TH+ neurons, with the background of non-neural regions that was negative for the neuronal marker βIII-Tubulin typically lower than 10%. It was not determined whether the effect of MEDII induced more efficient neuralization or inhibited the generation of non-neural cell types. […] This proportion was determined by analysis of double staining of neural extensions for βIII-Tubulin and TH (FIG. 18), and overlaying Hoffman images with TH immunofluorescence (FIG. 19). The increase in the proportion of TH+ neurons in MEDII treated differentiations appeared to be due to the overall increase in neuronal differentiation, rather than an effect on the proportion of neurons that were dopaminergic, because the proportions of neurons that were TH+ in differentiations not exposed to MEDII was equally high. Another marker of DA cells, VMAT, was expressed in similarly high proportions of cells within the sfEBM cultures. TH+/VMAT−, TH−/VMAT+ and TH+/VMAT+ cells were observed (FIG. 20), possibly indicating temporal variability in the induction of expression of these markers prior to being co-expressed.

`CCCCCCCCCCCCC/C=C/[C@@H](O)[C@H](CO)NC(C)=O` [C2-ceramide, N-acetyl sphingosine, reference compound] showed a TUNEL stained cells ([1]; EB8 stage) of 45±10% and a TUNEL stained cells ([1]; NP2 stage) of 70±10%.
`CCCCCCCCCCCCCCCC(=O)NC(CO)CO` [S16, N-(2-hydroxy-1-(hydroxymethyl)ethyl)-palmitoylamide] showed a TUNEL stained cells ([1]; EB8 stage) of 45±10% and a TUNEL stained cells ([1]; NP2 stage) of 70±10%.
Compound `CCCCCCCCCCCCOC(=O)c1cc(O)c(O)c(O)c1` [laurylgallate, n-dodecyl ester of 3,4,5-trihydroxybenzoic acid] has a cells undergoing apoptosis ([2]; 0.5 μM) of 50% and a cells undergoing apoptosis ([2]; 1.0 μM) of 100%.
For `O=C(O)[C@@H]1CCCN1` [proline, L-proline], the “seeded EB pieces that did not exhibit large networks of βIII-Tubulin+ cells” value (SSEA4 selected HESCs [3]) was “less than 30%”, the “neurons generated that were dopaminergic (co-expressing βIII-Tubulin and TH)” value (SSEA4 selected HESCs [3]; day 22) was “greater than 90%” and the “TH+ neurons, of the cells in an embryoid body in suspension” value (SSEA4 selected HESCs [4]) was “greater than 50%”. The “maintained in a proliferative state after proliferation of neural rosette structures” value (SSEA4 selected HESCs [5]; 50 μM L-proline) was 34 weeks, the “maintained in a proliferative state in suspension culture after initial derivation” value (SSEA4 selected HESCs [5]; 50 μM L-proline) was “more than 7 weeks” and the “appearance of sfEBPs with low cell death and distinct neural rosette structures/folds” value (SSEA4 selected HESCs [5]; 50 μM Proline condition, around 3 weeks) was “noticeably enhanced”.
FGF2: fibroblast growth factor 2 was tested, and the “area of seeded serum free embryoid body containing TH+ neurons” value (SSEA4 selected HESCs [6]; 10 μM S18 day 13 to 17, seeded day 18, fixed day 23) was 30-70% and the “proportion of neurons expressing TH” value (SSEA4 selected HESCs [6]; βIII-Tubulin/TH double staining, seeded day 18, fixed day 23) was “very high proportion”.
